Results reported in patent US11608320B2, “Oxazolidinone hydroxamic acid derivatives” (KUWAIT UNIVERSITY, priority 2020, dated 2023).

What was measured:
[1] = biological target: T1, recombinant human 5-LO enzyme (Homo sapiens, UniProt P09917); test: Direct 5-LO inhibitory activity in a cell-free assay (H2DCF-DA fluorescence); format: biochemical; conditions: cell-free, recombinant human 5-LO; read-out: Inhibitory Activity IC50, Human recomb. 5-LO
T1 sequence (P09917 1-674): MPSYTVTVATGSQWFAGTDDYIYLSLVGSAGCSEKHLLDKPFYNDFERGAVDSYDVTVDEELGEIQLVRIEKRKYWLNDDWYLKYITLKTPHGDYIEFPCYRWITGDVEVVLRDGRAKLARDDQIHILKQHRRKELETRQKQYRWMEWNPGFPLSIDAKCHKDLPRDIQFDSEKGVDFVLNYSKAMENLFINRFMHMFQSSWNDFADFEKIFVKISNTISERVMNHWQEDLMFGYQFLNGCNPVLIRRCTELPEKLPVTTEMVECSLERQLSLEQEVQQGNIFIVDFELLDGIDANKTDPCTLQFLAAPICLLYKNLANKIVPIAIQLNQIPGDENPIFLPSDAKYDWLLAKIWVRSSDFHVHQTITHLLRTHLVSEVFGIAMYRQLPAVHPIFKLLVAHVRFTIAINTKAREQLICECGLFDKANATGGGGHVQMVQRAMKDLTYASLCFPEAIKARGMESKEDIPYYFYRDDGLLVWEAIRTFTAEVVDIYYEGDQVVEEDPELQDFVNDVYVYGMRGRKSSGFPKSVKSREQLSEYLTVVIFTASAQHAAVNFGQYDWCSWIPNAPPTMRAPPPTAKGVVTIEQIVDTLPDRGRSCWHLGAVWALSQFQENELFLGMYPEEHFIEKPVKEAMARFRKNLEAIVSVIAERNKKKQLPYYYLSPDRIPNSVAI
Procedure: H2DCF-DA (60 μM) was first pre-cleaved by incubating with 450 mU/ml recombinant human 5-LO enzyme in Tris buffer (containing 50 mM Tris, pH=7.5, 2 mM EDTA, 2 mM CaCl2), 1 mM dithiothreitol (DTT) and 0.6 U/ml glutathione peroxidase) for 10 min at room temperature. […] After 10 min incubation at room temperature, the reaction was started with the addition of 50 μl of the substrate solution (Tris buffer containing 20 μM ATP and 20 μM arachidonic acid). After a further 20 min, the reaction was terminated with 100 μl acetonitrile. Fluorescence was read at 500 nm excitation and 520 emission, with Novostar® microplate reader (BMG Labtech, Offenburg, Germany). Appropriate controls, including 100 μM nordihydroguaiaretic acid (NDGA), were included to isolate only the 5-LO-attributable, NDGA-inhibitable RFU values.

[2] = test system: zymosan-induced peritonitis; test: Zymosan-induced peritoneal inflammation in mice; format: in vivo, mouse; conditions: 30 min before zymosan i.p., peritoneal exudate at 2 h
Description: Inhibition of zymosan-induced peritoneal inflammation in mice: Female Balb/c mice, 6-8 weeks old, obtained from the Animal Resources Center of the Health Sciences Center, Kuwait University, were used. They were maintained under temperature-controlled conditions with an artificial 12-h light/dark cycle and allowed standard chow and water ad libitum. The study protocol was approved by the “Health Sciences Center Animal Welfare Committee” and complied with the “Guidelines for the Care and Use of Laboratory Animals” of the Health Sciences Centre, Kuwait University. The zymosan-induced peritonitis model-a recognized LT-mediated inflammatory reaction, described particularly in Hanke et al., 2013 ([…]., et al. (2013). Journal of medicinal chemistry, 56(22), 9031-9044) was used. […] After 30 min, all groups were injected intraperitonally with 0.2 ml of activated zymosan (2 mg/ml) except the control group that received 0.2 ml PBS. After 2 h, all animals were killed and the peritoneal exudate was collected by washing the cavity with 3 ml of heparinized (10 IU/ml) PBS.

- IC50 [1]: 1600 nM
- melting point: 119 to 122 °C
Structure (SMILES): CCCCCCCC(=O)N(O)C[C@H]1CN(c2ccc(N3CCOCC3)c(F)c2)C(=O)O1 [PH-251, (R)—N-((3-(3-fluoro-4-morpholinophenyl)-2-oxooxazolidin-5-yl)methyl)-N-hydroxyoctanamide]
- Net Exudate Vol ([2]; 3 mg/kg s.c.): 0.24 ± 0.05 mL
- Total Cell No ([2]; 3 mg/kg s.c.): 21.1 ± 1.6 ×10^6
- Total LTC4 ([2]; 3 mg/kg s.c.): 101.7 ± 20.2 ng
- Net Exudate Vol ([2]; 10 mg/kg s.c.): 0.12 ± 0.08 mL
- Total Cell No ([2]; 10 mg/kg s.c.): 16.4 ±17 ×10^6
- Total LTC4 ([2]; 10 mg/kg s.c.): 77.4 ± 16.8 ng
- Net Exudate Vol ([2]; 30 mg/kg s.c.): 0.04 ± 0.02 mL
- Total Cell No ([2]; 30 mg/kg s.c.): 17.6 ± 2.1 ×10^6
- Total LTC4 ([2]; 30 mg/kg s.c.): 33.9 ± 4.9 ng
